What all share (assay): NCI anticancer screen, dose series, 48 h
Test [1] deals with BT-549 breast.
For test [2], the system named is EKVX NSCLC.
Test [3] deals with K-562 leukemia.
Test [4] has as its system MDA-MB-231 breast.
The test system of test [5] is MDA-MB-435.
The test system of test [6] is MDA-N.
For test [7], the system named is NCI/ADR-RES ovarian.
Test [8] concerns SF-268 CNS.
Test [9] relates to SK-MEL-5 melanoma.
Test [10] deals with UO-31 renal.

The structures appear in SMILES notation.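 Interpolation was linear, between the two tested concentrations surrounding the appropriate level; five concentrations were tested over 48 hours in 96-well plates. At the TGI there is no net growth.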

As to `Cn1ccn2c3nc4ccccc4nc3c(=O)c(C#N)c12`, the TGI in [1], in [2], in [3], in test [4], in [5] and in test [6] was greater than 100 µM in each case. For the same molecule, the TGI in test [7] was greater than 81.8 µM; in [8] it was greater than 100 µM; in test [9] it was greater than 13.4 µM; in [10], greater than 100 µM.

On to `NC(=O)c1nnc2cc(F)ccc2c1N`, for which the TGI in test [1], in test [2], in test [3], in [4], in test [5] and in [6] was greater than 100 µM each time. Besides, the TGI in [7], in [8], in test [9] and in [10] was greater than 100 µM each time.

Consider `CCCCCC(=O)N[C@@H](c1ccccc1)C(O)C(=O)OC1C[C@@]2(O)C(OC(=O)c3ccccc3)C3[C@](C)(C(=O)[C@H](O)C(=C1C)C2(C)C)C(OC1OCC(O)C(O)C1O)C[C@H]1OC[C@@]31OC(C)=O` (stereo not given in full), for which the TGI in [1] was greater than 100 µM; in [2], greater than 100 µM; in test [3] it was greater than 100 µM; in test [4], greater than 100 µM; in [5] it was 1.78 µM; in [6] it was 1.03 µM. The TGI in test [7], in [8], in [9] and in [10] was greater than 100 µM throughout.

As for `C1CSCCCSCCSCCCSC1`, the TGI in test [1], in [2], in test [3], in test [4], in test [5] and in test [6] was greater than 100 µM in each case. Also, the TGI in [8], in test [9] and in test [10] was greater than 100 µM in each case.

For the molecule `COc1cc(OC)c2c(O)c3c(cc2c1)CC(C)(C)CC3=O`, the TGI in test [1], in [2], in test [3], in test [4], in test [5] and in [6] was greater than 100 µM throughout. The TGI in [7], in [8], in [9] and in test [10] was greater than 100 µM each time.

On to `O=c1c(SSc2coc3cc(F)ccc3c2=O)coc2cc(F)ccc12`, for which the TGI in test [1] was greater than 100 µM; in test [2], 99.3 µM; in [3], 64.2 µM; in test [4], 37.1 µM; in test [5] it was 36.3 µM; in test [6], 34.3 µM. The TGI in test [7] is 78.8 µM; in test [8] it was greater than 100 µM; in test [9], 46.2 µM; in [10], 52.7 µM.

Regarding `CCCCCCCCCCCCCCCCCCNc1ccn(C2OC(COP(=O)(O)OCC3CCC(n4cnc5c(=O)[nH]cnc54)O3)C(O)C2O)c(=O)n1` (stereo not given), the TGI in [1], in test [2], in test [5], in test [6], in test [7] and in test [8] was greater than 100 µM throughout. For the same molecule, the TGI in test [9] and in test [10] was greater than 100 µM each time.

With `O=C(/C=C/c1ccsc1)c1ccco1`, the TGI in [1] was 33.2 µM; in test [2], 36 µM; in [3] it was greater than 56.4 µM; in test [4], 26.9 µM; in test [5], greater than 50.3 µM; in [6], 25.2 µM. For the same molecule, the TGI in [7] turned out to be 40.5 µM; in test [8], 38.5 µM; in test [9] it was 29.7 µM; in test [10] it was 22.7 µM.

As for `COC(=O)c1ccccc1C#CC#Cc1ccccc1C(=O)OC`, the TGI in test [1], in test [2], in [3], in test [4], in test [5] and in test [6] was greater than 10 µM each time. Besides, the TGI in test [7], in test [8], in test [9] and in test [10] was greater than 10 µM each time.

As to `C=CCOc1ccccc1N=N/C(C#N)=N\Nc1ccccc1OCC=C`, the TGI in test [1] was greater than 100 µM; in test [2] it was greater than 100 µM; in test [3], greater than 100 µM; in test [4] it was greater than 100 µM; in test [5] it was greater than 100 µM; in test [6], 94.7 µM. Also, the TGI in test [7], in test [8], in [9] and in test [10] was greater than 100 µM throughout.

Regarding `O=C1NC(N/N=C\C(O)C(O)C(O)CO)=N/C1=C/c1ccc(Cl)cc1` (stereo not given), the TGI in [1], in test [2], in test [3], in test [4], in [5] and in test [6] was greater than 100 µM in each case. Further, the TGI in [7], in test [8], in test [9] and in test [10] was greater than 100 µM each time.

For `O=C1C(NCCc2ccc(O)c(O)c2)=CC(=O)c2ncccc21`, the TGI in test [1] was found to be 19.6 µM; in test [2], 52 µM; in [3], 20.2 µM; in test [4] it was 16.1 µM; in test [5], 3.28 µM; in test [6], 4.74 µM. Moreover, the TGI was found to be 25.1 µM in test [7], 66.5 µM in test [8], 15.4 µM in [9] and 24.4 µM in test [10].

With `CC(C(=O)ON1C(=O)CCC1=O)c1ccc(C(=O)c2ccccc2)s1` (stereo not given), the TGI in test [1], in [2], in test [3], in test [4], in test [5] and in test [6] was greater than 100 µM in each case. For the same molecule, the TGI in test [7], in [8], in [9] and in test [10] was greater than 100 µM in each case.

With `Cc1cc(-c2[nH]c(C(=O)O)cc2I)on1`, the TGI in [1], in test [2], in test [3], in test [4], in [5] and in test [6] was greater than 100 µM each time. Further, the TGI in [7], in test [8], in [9] and in test [10] was greater than 100 µM each time.

As to `O=C(CN1CCN(Cc2ccccc2)CC1)N1CCCn2c1nc1ccccc1c2=O`, the TGI in test [1], in test [2], in test [3], in test [4], in test [5] and in test [6] was greater than 100 µM each time. In addition, the TGI in [7], in test [8], in test [9] and in test [10] was greater than 100 µM in each case.

On to `[Se]=P(c1ccccc1)(c1ccccc1)c1ccc(C(c2ccccc2)=P(c2ccccc2)(c2ccccc2)c2ccccc2)cc1`, for which the TGI turned out to be 6.56 µM in test [1]; 15.8 µM in test [2]; 3.33 µM in test [3]; 7.33 µM in test [4]; 3.46 µM in test [5]; 4.57 µM in [6]. In addition, the TGI in test [7] was greater than 54.1 µM; in [8], 9.26 µM; in test [9], 1.64 µM; in test [10], 20.1 µM.

As to `CC12CCC(C(=O)O1)C(C)(C)O2` (stereo not given), the TGI in [1], in [2], in [3], in [4], in test [5] and in [6] was greater than 100 µM throughout. Besides, the TGI in [7], in test [8] and in test [10] was greater than 100 µM each time.

Regarding `CCCCc1c(C(=O)OC(C)(C)C)cc(C#Cc2cc(C(=O)OC(C)(C)C)c(CCCC)c(C(=O)OC(C)(C)C)c2)cc1C(=O)OC(C)(C)C`, the TGI in [1], in test [2], in [4], in test [5], in test [6] and in [7] was greater than 100 µM each time. In addition, the TGI in [8], in test [9] and in test [10] was greater than 100 µM throughout.

Regarding `Cc1ccc(S(=O)(=O)/N=C(\NN)Nc2ccc(Cl)cc2)cc1`, the TGI in test [1], in test [2], in test [3], in [4], in test [6] and in test [7] was greater than 100 µM throughout. Moreover, the TGI in [9] and in [10] was greater than 100 µM in each case.

On to `O=C1/C(=C\c2cccc(Oc3ccccc3)c2)S(=O)(=O)C(c2ccccc2)N1c1ccccc1Cl` (stereo not given), for which the TGI in [1] was greater than 100 µM; in test [2], 92.2 µM; in test [3] it was 64.2 µM; in test [4] it was greater than 100 µM; in test [5], 87 µM; in test [6], 50.2 µM. Moreover, the TGI in test [7] was greater than 100 µM; in test [9] it was 32 µM; in test [10], greater than 100 µM.

In the case of `O=[N+]([O-])/C(C(Cl)=C(Cl)Cl)=C1\NCCO1`, the TGI in [2], in test [3], in test [4], in test [5], in [6] and in test [7] was greater than 100 µM throughout. Further, the TGI in [8], in test [9] and in test [10] was greater than 100 µM throughout.

With `Cn1c(C(C#N)c2nc(Cl)ncc2Br)nc2ccccc21` (stereo not given), the TGI in test [1], in test [2], in [4], in test [5], in test [6] and in test [7] was greater than 100 µM in each case. The TGI in [8], in test [9] and in test [10] was greater than 100 µM throughout.

On to `O=c1[nH]nc(-c2ccccc2)n1/N=C/c1ccncc1`, for which the TGI in test [1], in test [2], in test [3], in [5], in test [6] and in [7] was greater than 100 µM in each case. In addition, the TGI in test [8], in test [9] and in [10] was greater than 100 µM in each case.

As to `C/C(=N/NC(=S)Nc1ccccc1Cl)c1cccc(/C(C)=N\NC(=S)Nc2ccccc2Cl)n1`, the TGI in test [2] is greater than 100 µM; in [3] it was greater than 100 µM; in [4], 75.2 µM; in test [5] it was greater than 100 µM; in test [6], greater than 100 µM; in test [7], greater than 100 µM. Moreover, the TGI in [8], in [9] and in [10] was greater than 100 µM each time.

For the molecule `CN(C)c1ccc(/C=C2\N=C(NN)NC2=O)cc1`, the TGI in test [1], in [2], in [3], in test [4], in [5] and in [6] was greater than 100 µM in each case. The TGI in [7], in test [8] and in [10] was greater than 100 µM in each case.

As to `Cc1ccsc1/C=N/Nc1cc(C)c2cccc(C)c2n1`, the TGI in test [1], in test [2], in [5], in test [6], in [7] and in [8] was greater than 100 µM throughout.

Take `O=c1/c(=C\c2ccccc2)sc2n1C(c1ccccc1)C1(O)CCCCC1N=2` (stereo not given): the TGI in [1], in test [3], in [4], in [5], in [6] and in [8] was greater than 100 µM in each case. The TGI in test [9] and in [10] was greater than 100 µM each time.

Consider `O=C(NCCC(F)(F)C(F)(F)C(F)(F)C(F)(F)F)NC1OC(CO)C(O)C(O)C1O` (stereo not given), for which the TGI in test [1], in test [3], in test [4], in [5], in test [6] and in [7] was greater than 100 µM each time. In addition, the TGI in [8], in [9] and in test [10] was greater than 100 µM each time.

The values are drawn from PubChem BioAssay (NCI).
